Reference: patent EP0380084A2, “Method for the inhibition of cell-cell and cell substratum interactions by the blocking of carbohydrate-carbohydrate interactions” (The Biomembrane Institute, priority 1989, dated 1990)
Entries after “also recorded” stand apart in the source; their conditions may differ.

Tests used:
[1] = tested on: mouse teratocarcinoma F9 cells; assay: F9 cell aggregation assay (microscopy and Coulter Counter count of single cells); type: cell-based; conditions: for self-aggregation of F9 cells: PBS with Ca2+ and Mg2+, 50 mM EDTA, 2 mM LFP II, 2 mM LFP III (Figure 1, panels a-d); for numbers of free (i.e., nonaggregated) cells: Coulter Counter, semiquantitative (Figure 1, panel e), 2 mM LFP II or LFP III
Procedure: More specifically, mouse teratocarcinoma F9 cells (Bernstine et al., Proc. Natl. Acad. Sci. USA 70:3899-3903, 1973) were grown on gelatin-coated plates in Dulbecco's modified Eagle's medium (DME) containing 4.5 g/l glucose and supplemented with 10% fetal calf serum (FCS) (v/v). The plates were prepared by incubating 0.01% gelatin in water for 30 min.
F9 cells grown to confluency on gelatin-coated plates were harvested using standard trypsin/EDTA solution and washed in DME containing 10% FCS. Next, the cells were carefully resuspended in a PBS solution (containing 0.9 mM Ca²⁺, 0.5 mM Mg²⁺ and 0.1 mM Mn²⁺) and supplemented with 0.1% FCS. The cell samples were mixed carefully before pipetting, and both manual counting and counting with a Coulter Counter (Model ZBI, Coulter Electronics Inc., Hialeah, Fla.) were performed. Adjustments of the aperture on the Coulter Counter were made in order to correlate with the manual counting of the single cells, excluding aggregated cells. For aggregation assays, cells were adjusted to a concentration of about 2.6 x 10⁷/ml. After 1 hr at 37°C, 50 µl aliquots were mixed with 50 µl of ethylenediaminetetraacetic acid (EDTA), LFP II, or LFP III solutions, and cells were incubated for an additional 15 min at 37°C. […] Before measurements on the Coulter Counter, the 100 µl volume sample was diluted to 10 ml and mixed carefully. In experiments were photomicrographs of cells were taken, approximately 0.8 x 10⁶ cells were placed in different PBS solutions (final volume 100 µl) in small Petri dishes. The cell suspension was then covered by mineral oil and incubated at 37°C for 30-60 min, and the process of cell aggregation was observed under the microscope.
The degree of F9 cell aggregation was semiquantitatively expressed by numbers of free (i.e., nonaggregated) cells (panel e), as determined by Coulter Counter with an appropriate aperture setting.

[2] = tested on: mouse T cell lymphoma L5178 AA12 cell line (high expressor of Gg3) to mouse B16 melanoma cell line (high expressor of GM₃); assay: Adhesion of 3H-labeled L5178 AA12 lymphoma cells to B16 melanoma cell layer; type: cell-based; conditions: 10 mM EDTA, 5 mM sialyllactose, DH2 2 µg/ml, 2D4 5 µg/ml; 3H remaining after washing (Figure 2, panel c)
Procedure: Mouse B16 melanoma cells (which express a high level of GM₃) were purchased from American Type Culture Collection (Rockville, MD).
B16 cells (5x10⁴/ml), highly expressing GM₃, were grown on 24-well plates (Falcon, Oxnard, CA) for 24 hrs in DME. The majority of adherent cells were washed with serum-free medium. AA12 cells (Gg3 expressors) or AV27 cells (Gg3 non-expressors) were grown in DME containing 2% FCS, 1 g/l glucose, and 50 µCi ³H-GlcNH₂ for 24 hrs. The labeled AA12 (71,000 cpm/10⁵ cells) and AV27 (33,000 cpm/10⁵ cells) were then collected by centrifugation, suspended in DME containing 2% FCS and 1 g/l glucose, and the cell population adjusted to 6x10⁵/ml. This suspension (1 ml) was added to each well of a Falcon plate on which B16 melanoma cells were grown as adherent culture. The incubated plates were then washed 2x with serum-free fresh medium. L5178 lymphoma cells not adhering to B16 cells were washed out. The remaining cells in each plate were trypsinized, collected, and counted.
B16 melanoma cells grown in 24-well plates and L5178 lymphoma cells were treated respectively with DH2 solution (2 µg/ml) and 2D4 solution (5 µg/ml), left for 30 min at room temperature, washed with serum-­free fresh DME, and incubated with lymphoma cell suspension and melanoma cell layer for 5 hrs.

Le^x glycolipid = assay: Interaction of Le^x liposomes with Le^x glycolipid coated on a plastic surface; type: binding
Procedure: A representative example of a carbohydrate-carbohydrate interaction is the recognition of Le^x(Galβ1 → 4[Fucα1 → 3]GlcNacβ1 → R) by Le^x per se. Le^x pentaosyl glycolipid (III³FucnLc₄) was prepared from human colonic adenocarcinoma.

[3] = tested on: mouse T cell lymphoma L5178 AV27 cell line to B16 cells; conditions: 10 mM EDTA; 3H remaining after washing (Figure 2, panel c)
Procedure: Mouse B16 melanoma cells (which express a high level of GM₃) were purchased from American Type Culture Collection (Rockville, MD). Expression of GM₃ by B16 cells was defined by MAb DH2 (Dohi et al., Cancer Res. 48:5680-5685, 1988). Mouse T cell lymphoma line L5178 AA12 (which express a high level of Gg3, defined by MAb 2D4; Young et al., J. Exp. Med. 150:1008-1019, 1979) was cloned from 1C1 (Young et al., J. Immunol. 126:1-6, 1981). […] All cells were grown in RPMI 1640 containing 10% FCS.
B16 cells (5x10⁴/ml), highly expressing GM₃, were grown on 24-well plates (Falcon, Oxnard, CA) for 24 hrs in DME. The majority of adherent cells were washed with serum-free medium. AA12 cells (Gg3 expressors) or AV27 cells (Gg3 non-expressors) were grown in DME containing 2% FCS, 1 g/l glucose, and 50 µCi ³H-GlcNH₂ for 24 hrs. The labeled AA12 (71,000 cpm/10⁵ cells) and AV27 (33,000 cpm/10⁵ cells) were then collected by centrifugation, suspended in DME containing 2% FCS and 1 g/l glucose, and the cell population adjusted to 6x10⁵/ml. This suspension (1 ml) was added to each well of a Falcon plate on which B16 melanoma cells were grown as adherent culture. The incubated plates were then washed 2x with serum-free fresh medium. L5178 lymphoma cells not adhering to B16 cells were washed out. The remaining cells in each plate were trypsinized, collected, and counted. […]

Gg3/GM₃ interaction = conditions: antibody: pretreatment of the Gg3-coated solid phase
Le^x liposomes = assay: Self-aggregation of Le^x liposomes; type: binding
Procedure: A representative example of a carbohydrate-carbohydrate interaction is the recognition of Le^x(Galβ1 → 4[Fucα1 → 3]GlcNacβ1 → R) by Le^x per se. Le^x pentaosyl glycolipid (III³FucnLc₄) was prepared from human colonic adenocarcinoma. Within the present invention, Le^x is shown to be the structure recognizing Le^x. […] Fourth, the diffusability of tritium-labeled LFP III (from the lower to the upper Boyden chamber through a semipermeable membrane) was inhibited by Le^x liposomes. In addition, the Le^x-Le^x interaction was highly dependent on bivalent cations (Ca²⁺, Mg²⁺) and was inhibited by EDTA.

| Compound | self-aggregation of F9 cells [1] | Adhesion of AA12 cells on B16 melanoma [2] | Le^x-Le^x interaction (Le^x glycolipid; dependent on bivalent cations (Ca2+, Mg2+)) | Adhesion of AV27 cells to B16 cells [3] | interaction of Gg3-coated solid phase with GM₃-containing liposomes (Gg3/GM₃ interaction) | numbers of free (i.e., nonaggregated) cells [1] | interaction of Le^x liposomes with immobilized Le^x glycolipid (Le^x glycolipid) | self-aggregation of Le^x liposomes (Le^x liposomes) |
| --- | --- | --- | --- | --- | --- | --- | --- | --- |
| O=C(O)CN(CCN(CC(=O)O)CC(=O)O)CC(=O)O [EDTA, ethylenediaminetetraacetic acid] | aggregation did not occur; also recorded: inhibited | greatly suppressed | inhibited | greatly suppressed | inhibited | – | – | – |
| CC(=O)NC1C(OC2C(O)C(CO)OC(OC3C(CO)OC(O)C(O)C3O)C2O)OC(CO)C(OC2OC(CO)C(O)C(O)C2O)C1OC1OC(C)C(O)C(O)C1O (stereo not drawn) [LFP III] | aggregation was inhibited | – | – | – | – | increased greatly | specifically inhibited | specifically inhibited |
| CC(=O)N[C@H]1[C@H](O[C@H]2[C@@H](O)[C@@H](CO)O[C@@H](O[C@H]3[C@H](O)[C@@H](O)C(O)O[C@@H]3CO)[C@@H]2O)O[C@H](CO)[C@@H](O[C@@H]2O[C@@H](C)[C@@H](O)[C@@H](O)[C@@H]2O)[C@@H]1O[C@@H]1O[C@H](CO)[C@H](O)[C@H](O)[C@H]1O (stereo partly drawn) [LFP II] | aggregation of F9 cells; also recorded: not by LFP II | – | – | – | – | much less | – | – |
| sialyllactose | – | markedly inhibited | – | – | – | – | – | – |
